The record followed here is patent US20090221616A1, “QUINAZOLINE DERIVATIVES AS EGF AND/OR ERBB2 TYROSINE KINASE INHIBITORS” (priority 2005, published 2009).

The target in assay [1] is T1, erbB2 tyrosine kinase (Homo sapiens, UniProt P04626).
T1 construct: Recombinant intracellular fragments of EGFR, erbB2 and erbB4; made in house; host or cells: baculovirus/Sf21 insect cells (cleared lysate used)
Kind of assay: Test (a) protein tyrosine kinase phosphorylation assay, erbB2. The format is biochemical. The settings on record: ATP at Km concentration; read-out: IC50 Test (a): Inhibition of erbB2 tyrosine kinase protein phosphorylation. As for the experimental part: (§1) This test measures the ability of a test compound to inhibit the phosphorylation of a tyrosine containing polypeptide substrate by EGFR, erbB2 and erbB4 tyrosine kinase enzyme.
(§2) Recombinant intracellular fragments of EGFR, erbB2 and erbB4 (accession numbers X00588, X03363 and L07868 respectively) were cloned and expressed in the baculovirus/Sf21 system. […]
(§3) Constitutive kinase activity of these recombinant proteins was determined by their ability to phosphorylate a synthetic peptide (made up of a random co-polymer of Glutamic Acid, Alanine and Tyrosine in the ratio of 6:3:1). […]
(§4) The immobilised phospho-peptide product of the reaction was detected by immunological methods. […] After further washing, HRP activity in each well of the plate was measured colorimetrically using 22′-Azino-di-[3-ethylbenzthiazoline sulfonate (6)] diammonium salt crystals (ABTS™ from Roche) as a substrate.
(§5) Quantification of colour development and thus enzyme activity was achieved by the measurement of absorbance at 405 nm on a Molecular Devices ThermoMax microplate reader. Kinase inhibition for a given compound was expressed as an IC50 value. […] The range of phosphorylation was calculated from the positive (vehicle plus ATP) and negative (vehicle minus ATP) control values.

Assay [2] has as its target T2, EGFR tyrosine kinase (Homo sapiens, UniProt P00533).
T2 construct: Recombinant intracellular fragments of EGFR, erbB2 and erbB4; made in house; host or cells: baculovirus/Sf21 insect cells (cleared lysate used)
Kind of assay: Test (a) protein tyrosine kinase phosphorylation assay, EGFR. The assay is classed as biochemical. The settings on record: ATP at Km concentration; read-out: IC50 Test (a): Inhibition of EGFR tyrosine kinase protein phosphorylation. As for the experimental part: as §1, §2, §3, §4, §5

The target of assay [3] is T3, erbB2 in a MCF7 derived cell line (Clone 24 cells) (Homo sapiens, UniProt P04626).
T3 construct: to give a cell line that overexpresses full length wild type erbB2 protein; expressed in transfected cells; host or cells: MCF7 (breast carcinoma) derived Clone 24 cells
T3 sequence (P04626 23-1255): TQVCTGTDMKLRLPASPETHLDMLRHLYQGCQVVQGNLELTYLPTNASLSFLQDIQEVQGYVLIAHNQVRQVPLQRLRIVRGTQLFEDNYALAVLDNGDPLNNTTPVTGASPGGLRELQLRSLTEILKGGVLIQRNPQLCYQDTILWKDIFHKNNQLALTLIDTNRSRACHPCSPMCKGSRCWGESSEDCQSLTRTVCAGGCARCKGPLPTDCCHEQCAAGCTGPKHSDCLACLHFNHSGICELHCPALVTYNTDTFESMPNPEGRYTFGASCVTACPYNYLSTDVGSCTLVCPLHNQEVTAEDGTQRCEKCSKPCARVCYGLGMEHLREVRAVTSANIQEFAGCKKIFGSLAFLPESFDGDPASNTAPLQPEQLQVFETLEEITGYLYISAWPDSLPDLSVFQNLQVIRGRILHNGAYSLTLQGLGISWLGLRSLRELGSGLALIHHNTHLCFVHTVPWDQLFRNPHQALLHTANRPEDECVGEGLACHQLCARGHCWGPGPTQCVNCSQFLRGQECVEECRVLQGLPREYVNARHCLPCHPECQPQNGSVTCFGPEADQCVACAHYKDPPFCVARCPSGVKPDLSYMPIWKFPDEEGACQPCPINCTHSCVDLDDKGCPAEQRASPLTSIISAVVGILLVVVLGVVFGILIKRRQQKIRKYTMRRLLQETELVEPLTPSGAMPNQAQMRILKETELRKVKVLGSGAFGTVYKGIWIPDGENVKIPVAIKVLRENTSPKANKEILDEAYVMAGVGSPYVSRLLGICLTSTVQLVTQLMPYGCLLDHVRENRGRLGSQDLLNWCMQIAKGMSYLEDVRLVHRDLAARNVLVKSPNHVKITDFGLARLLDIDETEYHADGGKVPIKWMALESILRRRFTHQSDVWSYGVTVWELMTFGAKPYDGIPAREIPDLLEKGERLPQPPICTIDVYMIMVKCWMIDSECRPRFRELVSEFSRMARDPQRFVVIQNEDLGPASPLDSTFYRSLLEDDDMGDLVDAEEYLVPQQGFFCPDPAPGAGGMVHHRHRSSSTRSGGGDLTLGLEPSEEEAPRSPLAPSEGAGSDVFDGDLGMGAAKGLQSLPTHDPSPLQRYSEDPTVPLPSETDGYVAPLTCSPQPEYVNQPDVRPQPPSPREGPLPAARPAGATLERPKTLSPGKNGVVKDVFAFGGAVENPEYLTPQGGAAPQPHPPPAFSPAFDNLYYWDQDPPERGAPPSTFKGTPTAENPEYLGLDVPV
Kind of assay: Test (c) Clone 24 phospho-erbB2 cell assay. The assay is classed as cell-based. Conditions: MCF7 derived Clone 24 cells, 4 hours with compound; read-out: IC50 Test (c): Inhibition of erbB2 tyrosine kinase protein phosphorylation. The protocol: This immunofluorescence end point assay measures the ability of a test compound to inhibit the phosphorylation of erbB2 in a MCF7 (breast carcinoma) derived cell line which was generated by transfecting MCF7 cells with the full length erbB2 gene using standard methods to give a cell line that overexpresses full length wild type erbB2 protein (hereinafter ‘Clone 24’ cells).
Clone 24 cells were cultured in Growth Medium (phenol red free Dulbecco's modified Eagle's medium (DMEM) containing 10% foetal bovine serum, 2 mM glutamine and 1.2 mg/ml G418) in a 7.5% CO2 air incubator at 37° C. […] Cell density was measured using a haemocytometer and viability was calculated using Trypan Blue solution before being further diluted in Growth Medium and seeded at a density of 1×10^4 cells per well (in 100 μl) into clear bottomed 96 well plates (Packard, No. 6005182). […]
Immunostaining was performed at room temperature. […] Plates were analysed within six hours of completing the immunostaining.
The Fluorescence signal is each well was measured using an Acumen Explorer Instrument (Acumen Bioscience Ltd.), a plate reader that can be used to rapidly quantitate features of images generated by laser-scanning. […]

Each structure is given as a SMILES string.

T2 sequence (P00533 669-1210 limits assumed): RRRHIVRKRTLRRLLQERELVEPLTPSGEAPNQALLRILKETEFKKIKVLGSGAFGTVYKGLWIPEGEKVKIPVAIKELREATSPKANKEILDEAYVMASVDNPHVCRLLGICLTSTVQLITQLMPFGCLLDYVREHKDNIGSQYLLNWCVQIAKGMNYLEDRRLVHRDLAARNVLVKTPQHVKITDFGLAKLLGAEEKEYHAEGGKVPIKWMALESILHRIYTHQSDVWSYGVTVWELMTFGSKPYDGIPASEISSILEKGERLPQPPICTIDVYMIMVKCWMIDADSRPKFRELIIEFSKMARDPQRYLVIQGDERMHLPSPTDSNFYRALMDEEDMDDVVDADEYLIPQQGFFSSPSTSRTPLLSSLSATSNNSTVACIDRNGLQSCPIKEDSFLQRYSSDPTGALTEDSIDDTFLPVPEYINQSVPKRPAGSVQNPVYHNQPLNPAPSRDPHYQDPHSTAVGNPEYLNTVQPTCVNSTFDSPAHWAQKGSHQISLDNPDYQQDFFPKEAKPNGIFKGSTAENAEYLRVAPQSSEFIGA
T1 sequence (P04626 676-1255 limits assumed): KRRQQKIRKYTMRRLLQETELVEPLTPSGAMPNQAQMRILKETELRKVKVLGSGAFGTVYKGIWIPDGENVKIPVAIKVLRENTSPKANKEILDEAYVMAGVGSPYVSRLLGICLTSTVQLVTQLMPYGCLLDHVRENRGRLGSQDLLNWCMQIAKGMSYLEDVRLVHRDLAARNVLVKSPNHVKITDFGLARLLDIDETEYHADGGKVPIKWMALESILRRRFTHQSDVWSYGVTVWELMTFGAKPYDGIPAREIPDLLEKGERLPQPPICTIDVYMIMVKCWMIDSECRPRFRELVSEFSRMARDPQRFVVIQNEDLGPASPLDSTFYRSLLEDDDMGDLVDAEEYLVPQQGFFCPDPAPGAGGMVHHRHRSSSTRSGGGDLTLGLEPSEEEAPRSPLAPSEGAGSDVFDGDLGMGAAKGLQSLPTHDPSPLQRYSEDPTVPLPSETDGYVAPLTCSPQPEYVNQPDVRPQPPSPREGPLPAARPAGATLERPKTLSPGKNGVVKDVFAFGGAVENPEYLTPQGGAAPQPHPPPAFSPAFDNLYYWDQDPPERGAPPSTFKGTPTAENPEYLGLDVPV

The IC50 is the midpoint of a concentration-inhibition curve. As for `CN(CCOc1cccc2ncnc(Nc3ccc4c(cnn4Cc4cscn4)c3)c12)C(=O)CO` [Example 2, 2-Hydroxy-N-methyl-N-{2-[(4-{[1-(1,3-thiazol-4-ylmethyl)-1H-indazol-5-yl]amino}quinazolin-5-yl)oxy]ethyl}acetamide], the IC50 came to 6 nM in assay [1], 160 nM in assay [2] and 590 nM in assay [3].
Regarding `CN(CCOc1cccc2ncnc(Nc3ccc4c(cnn4Cc4ccccn4)c3)c12)C(=O)CO` [Example 1, 2-Hydroxy-N-methyl-N-{2-[(4-{[1-(pyridin-2-ylmethyl)-1H-indazol-5-yl]amino}quinazolin-5-yl)oxy]ethyl}acetamide], the figures for the IC50 in assay [1], in assay [2] and in assay [3] were 8 nM, 180 nM and 420 nM, respectively.
